# In US9783527B2, “Indazole ureas and method of use” (AbbVie Inc., priority 2014, dated 2017):
# Tests used:
# human Nav1.8 = human Nav1.8 (Homo sapiens (Human), UniProt Q9Y5Y9); experiment: FRET-based membrane potential assay, recombinant human sodium channel Nav1.8; type: cell-based; details: HEK293 cells stably expressing recombinant human Nav1.8; depolarization with veratridine (EC80) + scorpion venom
# Experimental: FRET-Based Membrane Potential Assays.
# Recombinant, Human Sodium Channel, Nav1.8.
# Two days prior to the experiment, frozen HEK293 cells stably expressing recombinant human Nav1.8 (Essen, Ann Arbor, Mich.) were quickly thawed and plated at 22,500 cells/well in growth medium [MEM (Invitrogen #11095) with 10% FBS (Invitrogen #10082), 1 mM sodium pyruvate (Invitrogen, #C11360), 10 units/mL penicillin/10 U/mL streptomycin/29.2 μg/mL glutamine ((PSG 1%, Invitrogen #10378), 400 μg/mL zeocin (Invitrogen #R250) in black-walled, clear-bottom 384-well poly-D-lysine-coated assay plates (Greiner Bio-One, Frickenhausen, Germany) and incubated in a humidified 5% CO2 incubator at 37° C. On the day of the assay, medium was removed by aspiration, and cells were washed with assay buffer [HBSS (Invitrogen, Carlsbad, Calif.) containing 20 mM HEPES (Invitrogen, Carlsbad, Calif.)]. After washing, 30 μL assay buffer containing the fluorescent voltage-sensor probe CC2-DMPE (Invitrogen, Carlsbad, Calif.) at 20 μM and 0.01% pluronic F-127 (Invitrogen, Carlsbad, Calif.) was added to the cells. Cells were incubated for 40 minutes at room temperature in the dark. Following the incubation, the cells were washed and 30 μL assay buffer containing 2.5 μM DiSBAC2(3) substrate (Invitrogen, Carlsbad, Calif.) and 0.5 mM VABSC-1 (Invitrogen, Carlsbad, Calif.) was added to the cells. The cells were incubated for 60 minutes at room temperature in the dark. Fluorescence readings were made using a FLIPR®^TETRA (Molecular Devices, Sunnyvale Calif.) equipped with voltage-sensor probe optics. The depolarizing agent, veratridine (Sigma-Aldrich, St. Louis, Mo.), was made up at 3× concentrations in assay buffer containing 1 mg/mL scorpion venom (SVqq, from Leiurus quinquestriatus; Sigma-Aldrich, St. Louis, Mo.). The assay agonist/opener concentration was determined each day using a 6-point veratridine concentration curve in duplicate, tested with three concentrations of tetracaine (0.1, 0.06, 0.01 μM all in 0.03% dimethyl sulfoxide) and 0.03% dimethyl sulfoxide control in assay buffer. […] Test compounds in the daughter plate were diluted to (˜3×) solutions in assay buffer immediately before assaying. Using the FLIPR®^TETRA, 20 μL of the (3×) compound solutions were first added to the cells, then 20 μL of depolarizing solution (3×EC80 veratridine+SVqq) were added 3 minutes later to activate the channel. Changes in fluorescence were measured at wavelengths of 440-480 nm and 565-625 nm over the course of the experimental run. Membrane depolarization was expressed as a ratio of the maximum F440-480 nm/F565-625 nm reading above average baseline F440-480 nm/F565-625 nm reading. IC50 values were calculated from curve fits of the ratio data using a four-parameter logistic Hill equation (Accelrys Assay Explorer 3.3 Client, Accelrys, San Diego, Calif.) with percent inhibition plotted against compound concentration.
# human Nav1.7 = human Nav1.7 (Homo sapiens (Human), UniProt Q15858); experiment: FRET-based membrane potential assay, recombinant human sodium channel Nav1.7; type: cell-based; details: HEK293 cells stably expressing recombinant human Nav1.7; depolarization with veratridine (EC80) + scorpion venom
# Sequence of human Nav1.7 (Q15858 whole entry): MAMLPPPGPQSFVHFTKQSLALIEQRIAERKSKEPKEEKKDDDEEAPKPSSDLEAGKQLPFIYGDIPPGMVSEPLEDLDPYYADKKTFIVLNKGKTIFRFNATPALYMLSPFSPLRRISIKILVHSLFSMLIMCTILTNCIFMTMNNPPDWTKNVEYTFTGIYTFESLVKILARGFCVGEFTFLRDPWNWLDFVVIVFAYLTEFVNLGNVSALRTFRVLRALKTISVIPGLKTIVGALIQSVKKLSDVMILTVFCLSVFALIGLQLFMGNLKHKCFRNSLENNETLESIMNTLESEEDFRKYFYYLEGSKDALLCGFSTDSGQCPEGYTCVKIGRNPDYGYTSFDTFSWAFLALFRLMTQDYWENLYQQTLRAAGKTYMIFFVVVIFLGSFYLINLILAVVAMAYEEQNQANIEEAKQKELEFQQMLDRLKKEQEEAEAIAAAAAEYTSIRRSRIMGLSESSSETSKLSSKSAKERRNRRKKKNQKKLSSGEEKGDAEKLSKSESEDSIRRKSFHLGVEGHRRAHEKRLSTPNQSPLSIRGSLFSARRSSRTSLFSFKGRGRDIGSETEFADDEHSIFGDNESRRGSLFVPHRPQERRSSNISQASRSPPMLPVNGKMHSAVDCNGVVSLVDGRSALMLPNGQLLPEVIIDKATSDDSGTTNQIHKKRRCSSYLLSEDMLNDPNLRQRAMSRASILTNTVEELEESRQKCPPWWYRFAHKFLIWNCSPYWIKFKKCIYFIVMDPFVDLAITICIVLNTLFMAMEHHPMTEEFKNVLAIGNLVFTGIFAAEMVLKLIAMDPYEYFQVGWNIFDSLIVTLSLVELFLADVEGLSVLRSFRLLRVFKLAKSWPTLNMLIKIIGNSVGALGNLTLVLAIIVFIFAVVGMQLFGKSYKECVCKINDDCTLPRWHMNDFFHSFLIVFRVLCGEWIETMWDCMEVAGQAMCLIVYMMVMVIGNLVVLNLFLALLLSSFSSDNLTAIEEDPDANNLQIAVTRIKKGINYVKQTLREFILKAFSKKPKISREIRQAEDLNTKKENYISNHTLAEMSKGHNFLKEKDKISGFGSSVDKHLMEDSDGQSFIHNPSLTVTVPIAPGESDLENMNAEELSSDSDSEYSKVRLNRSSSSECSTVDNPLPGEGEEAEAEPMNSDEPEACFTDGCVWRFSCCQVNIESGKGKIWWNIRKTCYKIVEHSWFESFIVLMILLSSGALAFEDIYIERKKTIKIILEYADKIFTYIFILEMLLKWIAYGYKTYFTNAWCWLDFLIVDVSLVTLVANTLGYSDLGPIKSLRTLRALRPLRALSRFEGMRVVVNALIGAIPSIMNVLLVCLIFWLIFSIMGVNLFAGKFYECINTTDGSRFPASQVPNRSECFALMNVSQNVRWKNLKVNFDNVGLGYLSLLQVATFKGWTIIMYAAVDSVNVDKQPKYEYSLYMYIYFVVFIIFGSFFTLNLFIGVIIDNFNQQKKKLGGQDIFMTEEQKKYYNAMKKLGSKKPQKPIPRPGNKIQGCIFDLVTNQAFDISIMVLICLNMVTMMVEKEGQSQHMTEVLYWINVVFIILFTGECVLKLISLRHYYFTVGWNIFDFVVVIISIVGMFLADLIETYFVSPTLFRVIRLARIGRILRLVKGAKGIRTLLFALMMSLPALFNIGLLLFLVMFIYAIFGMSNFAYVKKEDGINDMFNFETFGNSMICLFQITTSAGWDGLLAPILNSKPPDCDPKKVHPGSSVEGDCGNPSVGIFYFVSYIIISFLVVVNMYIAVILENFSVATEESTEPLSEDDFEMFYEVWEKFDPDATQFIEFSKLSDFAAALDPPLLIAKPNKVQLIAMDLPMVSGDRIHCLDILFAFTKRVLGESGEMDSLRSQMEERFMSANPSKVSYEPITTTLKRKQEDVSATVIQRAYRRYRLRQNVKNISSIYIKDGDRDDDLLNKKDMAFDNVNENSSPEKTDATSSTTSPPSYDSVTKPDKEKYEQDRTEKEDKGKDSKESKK
# Method in brief: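 IC50 derived by four-parameter Hill fit of percent inhibition of depolarization, measured as peak F440-480/F565-625 ratio over baseline. Stable human Nav1.7 HEK293 cells, dye-loaded with CC2-DMPE and DiSBAC2(3)/VABSC-1 at room temperature, received compound 3 min ahead of veratridine (EC80) plus scorpion venom.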
# Sequence of human Nav1.8 (Q9Y5Y9 whole entry): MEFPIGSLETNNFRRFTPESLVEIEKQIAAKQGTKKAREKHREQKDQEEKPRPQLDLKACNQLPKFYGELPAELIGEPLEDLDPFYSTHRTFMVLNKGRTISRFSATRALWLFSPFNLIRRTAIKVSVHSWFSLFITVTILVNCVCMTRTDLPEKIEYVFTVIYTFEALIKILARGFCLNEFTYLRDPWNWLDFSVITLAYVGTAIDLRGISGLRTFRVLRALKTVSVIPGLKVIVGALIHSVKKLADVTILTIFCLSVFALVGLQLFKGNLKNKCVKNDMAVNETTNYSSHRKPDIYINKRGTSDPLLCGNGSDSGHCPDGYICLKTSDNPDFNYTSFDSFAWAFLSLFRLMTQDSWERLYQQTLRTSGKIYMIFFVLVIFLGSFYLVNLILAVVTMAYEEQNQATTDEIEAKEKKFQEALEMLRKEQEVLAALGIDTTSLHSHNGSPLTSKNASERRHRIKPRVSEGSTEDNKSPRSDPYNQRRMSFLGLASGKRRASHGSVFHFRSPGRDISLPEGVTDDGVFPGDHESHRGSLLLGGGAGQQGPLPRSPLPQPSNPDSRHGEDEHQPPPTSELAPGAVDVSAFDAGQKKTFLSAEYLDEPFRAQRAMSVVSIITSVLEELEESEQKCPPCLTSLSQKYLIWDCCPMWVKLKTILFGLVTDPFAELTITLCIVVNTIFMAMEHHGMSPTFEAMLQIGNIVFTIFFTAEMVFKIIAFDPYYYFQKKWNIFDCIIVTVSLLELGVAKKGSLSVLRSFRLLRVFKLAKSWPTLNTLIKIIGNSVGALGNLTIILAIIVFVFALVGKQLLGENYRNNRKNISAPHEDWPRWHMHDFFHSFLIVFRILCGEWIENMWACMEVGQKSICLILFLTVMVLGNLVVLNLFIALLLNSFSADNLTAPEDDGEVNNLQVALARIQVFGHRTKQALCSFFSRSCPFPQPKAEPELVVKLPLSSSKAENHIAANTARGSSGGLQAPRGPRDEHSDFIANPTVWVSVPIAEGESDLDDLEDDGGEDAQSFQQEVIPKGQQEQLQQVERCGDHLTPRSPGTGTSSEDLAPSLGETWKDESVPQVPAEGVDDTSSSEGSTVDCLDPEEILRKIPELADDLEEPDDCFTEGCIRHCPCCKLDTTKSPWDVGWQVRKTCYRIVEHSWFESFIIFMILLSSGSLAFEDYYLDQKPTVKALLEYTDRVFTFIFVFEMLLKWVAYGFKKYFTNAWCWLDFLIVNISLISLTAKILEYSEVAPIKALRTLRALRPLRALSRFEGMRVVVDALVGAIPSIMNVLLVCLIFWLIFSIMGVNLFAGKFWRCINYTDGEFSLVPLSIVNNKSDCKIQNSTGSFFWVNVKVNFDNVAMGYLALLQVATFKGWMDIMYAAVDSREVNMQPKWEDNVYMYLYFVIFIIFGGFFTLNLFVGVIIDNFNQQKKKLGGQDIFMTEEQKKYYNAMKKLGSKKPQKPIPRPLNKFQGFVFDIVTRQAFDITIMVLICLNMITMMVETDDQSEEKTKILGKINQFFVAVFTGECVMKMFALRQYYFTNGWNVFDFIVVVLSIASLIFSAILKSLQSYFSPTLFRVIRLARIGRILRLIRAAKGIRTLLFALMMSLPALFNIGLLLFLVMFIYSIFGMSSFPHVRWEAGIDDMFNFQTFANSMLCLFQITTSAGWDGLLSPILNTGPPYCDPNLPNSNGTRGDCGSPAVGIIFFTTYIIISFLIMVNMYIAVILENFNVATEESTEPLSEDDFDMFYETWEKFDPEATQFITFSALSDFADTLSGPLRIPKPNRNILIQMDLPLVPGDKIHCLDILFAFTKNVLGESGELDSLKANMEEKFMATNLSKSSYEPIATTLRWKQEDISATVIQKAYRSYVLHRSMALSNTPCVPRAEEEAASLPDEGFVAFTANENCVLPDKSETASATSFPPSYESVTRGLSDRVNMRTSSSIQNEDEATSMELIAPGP
SMILES,IC50 (human Nav1.8) [µM],IC50 (human Nav1.7) [µM]
"CC(C)COC(=O)N1CCN(c2cccc3c2cnn3-c2ccccc2F)C1=O [Example 5, isobutyl 3-[1-(2-fluorophenyl)-1H-indazol-4-yl]-2-oxoimidazolidine-1-carboxylate]",0.0572,0.166
"O=C(Cn1ccn(-c2cccc3c2cnn3-c2ccccc2F)c1=O)N1CC[C@H](F)C1 [Example 11, 1-[1-(2-fluorophenyl)-1H-indazol-4-yl]-3-{2-[(3S)-3-fluoropyrrolidin-1-yl]-2-oxoethyl}-1,3-dihydro-2H-imidazol-2-one]",1.47,0.483
"O=C(CN1CCN(c2cccc3c2cnn3-c2ccccc2F)C1=O)N1CCC(F)CC1 [Example 69, 1-[1-(2-fluorophenyl)-1H-indazol-4-yl]-3-[2-(4-fluoropiperidin-1-yl)-2-oxoethyl]imidazolidin-2-one]",4.8,2.95
"O=C(CN1CCN(c2cccc3c2cnn3-c2ccccc2F)C1=O)NCC1CCOC1 (centres unmarked) [Example 75, 2-{3-[1-(2-fluorophenyl)-1H-indazol-4-yl]-2-oxoimidazolidin-1-yl}-N-(tetrahydrofuran-3-ylmethyl)acetamide]",12.1,7.49
"O=C(CN1CCN(c2cccc3c2cnn3-c2ccccc2F)C1=O)N[C@H]1CCOC1 [Example 87, 2-{3-[1-(2-fluorophenyl)-1H-indazol-4-yl]-2-oxoimidazolidin-1-yl}-N-[(3S)-tetrahydrofuran-3-yl]acetamide]",5.56,2.46
"O=C(CN1CCN(c2cccc3c2cnn3-c2cccc(OC(F)(F)F)c2)C1=O)N1CC[C@H](F)C1 [Example 88, 1-{2-[(3S)-3-fluoropyrrolidin-1-yl]-2-oxoethyl}-3-{1-[3-(trifluoromethoxy)phenyl]-1H-indazol-4-yl}imidazolidin-2-one]",1.37,0.351
"CCN(CC)C(=O)CN1CCN(c2cccc3c2cnn3-c2ccccc2F)C1=O [Example 93, N,N-diethyl-2-{3-[1-(2-fluorophenyl)-1H-indazol-4-yl]-2-oxoimidazolidin-1-yl}acetamide]",5.18,10.7
"O=C(CN1CCN(c2cccc3c2cnn3-c2ccccc2F)C1=O)N1CC2(COC2)C1 [Example 100, 1-[1-(2-fluorophenyl)-1H-indazol-4-yl]-3-[2-(2-oxa-6-azaspiro[3.3]hept-6-yl)-2-oxoethyl]imidazolidin-2-one]",20,5.01
"CS(=O)(=O)N1CC(N2CCN(c3cccc4c3cnn4-c3ccccc3F)C2=O)C1 [Example 271, 1-[1-(2-fluorophenyl)-1H-indazol-4-yl]-3-[1-(methylsulfonyl)azetidin-3-yl]imidazolidin-2-one]",–,3.45
"O=C1N(c2cccc3c2cnn3-c2ccccc2F)CCN1[C@@H]1CCCC[C@H]1OCc1ccccc1 [Example 272, 1-[(1R,2R)-2-(benzyloxy)cyclohexyl]-3-[1-(2-fluorophenyl)-1H-indazol-4-yl]imidazolidin-2-one]",–,0.338
"O=C1N(c2cccc3c2cnn3-c2ccccc2F)CCN1[C@@H]1CCCC[C@H]1O [Example 273, 1-[1-(2-fluorophenyl)-1H-indazol-4-yl]-3-[(1R,2R)-2-hydroxycyclohexyl]imidazolidin-2-one]",–,4.86
"CCCS(=O)(=O)N1CC(N2CCN(c3cccc4c3cnn4-c3ccccc3F)C2=O)C1 [Example 274, 1-[1-(2-fluorophenyl)-1H-indazol-4-yl]-3-[1-(propylsulfonyl)azetidin-3-yl]imidazolidin-2-one]",1.4,2.74
"O=C1N(c2cccc3c2cnn3-c2ccccc2F)CCN1[C@H]1CCCC[C@@H]1OCc1ccccc1 [Example 275, 1-[(1S,2S)-2-(benzyloxy)cyclohexyl]-3-[1-(2-fluorophenyl)-1H-indazol-4-yl]imidazolidin-2-one]",3.7,1.41
"O=C1N(c2cccc3c2cnn3-c2ccccc2F)CCN1[C@H]1CCCC[C@@H]1O [Example 276, 1-[1-(2-fluorophenyl)-1H-indazol-4-yl]-3-[(1S,2S)-2-hydroxycyclohexyl]imidazolidin-2-one]",6.44,15.1
"O=C(CN1CCN(c2cccc3c2cnn3-c2ccccc2)C1=O)N1CCCC1 [Example 277, 1-[2-oxo-2-(pyrrolidin-1-yl)ethyl]-3-(1-phenyl-1H-indazol-4-yl)imidazolidin-2-one]",–,3.06
"O=C(CN1CCN(c2cccc3c2cnn3-c2ccccn2)C1=O)N1CCCC1 [Example 278, 1-[2-oxo-2-(pyrrolidin-1-yl)ethyl]-3-[1-(pyridin-2-yl)-1H-indazol-4-yl]imidazolidin-2-one]",–,5.78
"CO[C@H]1CCCC[C@@H]1N1CCN(c2cccc3c2cnn3-c2ccccc2F)C1=O [Example 279, 1-[1-(2-fluorophenyl)-1H-indazol-4-yl]-3-[(1S,2S)-2-methoxycyclohexyl]imidazolidin-2-one]",5.64,1.86
"CC(C)CO[C@H]1CCCC[C@@H]1N1CCN(c2cccc3c2cnn3-c2ccccc2F)C1=O [Example 280, 1-[1-(2-fluorophenyl)-1H-indazol-4-yl]-3-[(1S,2S)-2-isobutoxycyclohexyl]imidazolidin-2-one]",10.8,0.518
"O=C1CCCC[C@@H]1N1CCN(c2cccc3c2cnn3-c2ccccc2F)C1=O [Example 281, 1-[1-(2-fluorophenyl)-1H-indazol-4-yl]-3-[(1S)-2-oxocyclohexyl]imidazolidin-2-one]",12.4,11.6
"CCOC(=O)/C=C\N1CCN(c2cccc3c2cnn3-c2ccccc2F)C1=O [Example 287, ethyl (2Z)-3-{3-[1-(2-fluorophenyl)-1H-indazol-4-yl]-2-oxoimidazolidin-1-yl}acrylate]",–,5.8
"CCOC(=O)/C=C/N1CCN(c2cccc3c2cnn3-c2ccccc2F)C1=O [Example 288, ethyl (2E)-3-{3-[1-(2-fluorophenyl)-1H-indazol-4-yl]-2-oxoimidazolidin-1-yl}acrylate]",–,5.3
"CO[C@H]1C[C@H](NC(=O)CN2CCN(c3cccc4c3cnn4-c3ccccc3F)C2=O)C1 [Example 326, 2-{3-[1-(2-fluorophenyl)-1H-indazol-4-yl]-2-oxoimidazolidin-1-yl}-N-(trans-3-methoxycyclobutyl)acetamide]",5.25,–
"CC1(C)CC1NC(=O)CN1CCN(c2cccc3c2cnn3-c2ccccc2F)C1=O (centres unmarked) [Example 328, N-(2,2-dimethylcyclopropyl)-2-{3-[1-(2-fluorophenyl)-1H-indazol-4-yl]-2-oxoimidazolidin-1-yl}acetamide]",–,3.02
"O=C(CN1CCN(c2cccc3c2cnn3-c2ccccc2F)C1=O)N1CCC(C(F)F)C1 (centres unmarked) [Example 330, 1-{2-[3-(difluoromethyl)pyrrolidin-1-yl]-2-oxoethyl}-3-[1-(2-fluorophenyl)-1H-indazol-4-yl]imidazolidin-2-one]",–,1.15
"CN1CCN(c2cccc3c2cnn3-c2ccccc2F)C1=O [Example 344, 1-[1-(2-fluorophenyl)-1H-indazol-4-yl]-3-methylimidazolidin-2-one]",7.38,–
"O=C(CN1CCN(c2cccc3c2cnn3-c2ccccc2F)C1=O)NC1CCC(F)(F)CC1 [Example 356, N-(4,4-difluorocyclohexyl)-2-{3-[1-(2-fluorophenyl)-1H-indazol-4-yl]-2-oxoimidazolidin-1-yl}acetamide]",–,1.86
"CC(C)(C)CNC(=O)CN1CCN(c2cccc3c2cnn3-c2ccccc2F)C1=O [Example 357, N-(2,2-dimethylpropyl)-2-{3-[1-(2-fluorophenyl)-1H-indazol-4-yl]-2-oxoimidazolidin-1-yl}acetamide]",–,3.06
